“And” between values parts separate entries of the source, which are not always exact repeats. Identical values can stand only once. Like-named read-outs stand apart in the source and are kept apart here.
What was measured:
[1] = Degradation of PPA in diluted/Opticurb solutions with mild steel; format: physicochemical; settings: in contact with mild steel
Description: Degradation of PPA in diluted/Opticurb solutions with mild steel. In another study, the solution of PPA with different diluents was measured for the peroxyacid content initially and after 1 h of immersing the […] to test the PPA degradation rate.

[2] = Stability of PPA in various diluent (peroxy value by titrimetry); format: physicochemical
Description: Stability of PPA in various diluent. In a separate study, the peroxy value of the mixture was estimated using the titrimetry procedure in 10 minutes and after 4 h of preparing the PPA solution with different diluents.
The peroxy acid value of PPA, when diluted with different diluents, is summarized below in Table 12.

[3] = tested on: Enterobacteriaceae; format: cell-based
Description: Materials and Method. Naturally contaminated layer feed was collected, ground, and mixed well prior to weighing. The ground feed was weighed and separated into 15 different bags, each containing 300 g. The product/prototype was accurately weighed at the needed dosage and adjusted to a total volume of 5 mL prior to adding into the 300 g of feed with a syringe and needle. Product/prototype was added in batches (i.e., 2, 2, and 1 mL separately) and mixed after each addition. Five mL of sterile water was added into the feed and served as the control. The treated feed samples were homogenized after treatment and kept at 25° C. until the day of enumeration.
TEC of the 15 samples were studied over a period of 22 days with enumeration interval at time points 0, 1 and 22 days. The effect of peroxy acid was neutralized at each time point prior to enumeration. At each time point, 20 mL of 0.1 M sodium thiosulphate was added into 10 g of each treated feed sample in a sterile bag. The mixture was mixed well and left to stand for 10 minutes. After 10 minutes, 70 mL of BPW was added to achieve 10^−1 dilution. The feed suspension was homogenously mixed and left to stand for 30 minutes. Subsequently, the feed suspension was serial diluted to appropriate dilutions for enumeration. 100 uL of the diluted samples were plated onto Violet Red Bile Glucose (VRBG; CM0485 from Oxoid) agar, prepared as per recommended by the supplier. An aliquot of 0.1 mL of the feed suspension was plated onto the agar at each dilution and incubated at 37° C. for 18-24 hours prior to enumeration. Plating was carried out in triplicates. If low TEC is expected, the sample size is increased to 1 mL by plating 300, 300 and 400 uL onto three plates in triplicates for lower detection limit (10 CFU/g). The diluted feed samples (at 10^−1 dilution factor) were kept at 37° C. for 18-24 hours for enrichment prior to streaking. A loopful of diluted feed suspension was streaked onto the VRBG agar and incubated at 37° C. for 18-24 hours to determine qualitatively the presence of Enterobacteriaceae for samples with undetectable TEC.

[4] = tested on: S. enteriditis ATCC 13076; experiment: Cell membrane permeability, crystal violet assay; format: cell-based, Salmonella enteriditis; settings: n = 3, two hours at 37° C., ~pH 7, listed as PPA
Description: Method. Cell membrane permeability was determined through crystal violet assay where an alteration in the outer cell membrane will result in a higher uptake of the dye, indicating a greater membrane permeability. An overnight culture of S. enteriditis ATCC 13076 in TSBYE was harvested with centrifugation at 6700 rcf for five minutes at room temperature using Eppendorf Centrifuge 5810 R. Upon aspirating the TSBYE, the cell pellets were washed with phosphate-buffered saline (PBS, pH 7.4, 10 mM) twice and resuspended in PBS. Subsequently, 0.75 mL of the cell suspension was added to 0.75 mL of the treatment (prepared in 10 mM PBS) into a two-milliliters microcentrifuge tube and incubated for two hours at 37° C. with agitation at 150 rpm. Cells without any treatments served as the negative control. After two hours of incubation, the cells were again harvested with centrifugation at 6700 rcf for five mins. Subsequently, the cells were resuspended in 10 μg/mL of crystal violet solution prepared in PBS and incubated for another 15 minutes with agitation at 150 rpm. After incubation, the suspension was centrifuged at 13,000 rcf for 15 minutes. The absorbance of the supernatant in each tube was measured at 590 nm. The percentage of dye uptake was calculated based on the ratio of absorbance values (Equation 1).

[5] = 2.5% ammonium hydroxide, after 15 minutes
[6] = 2.5% ammonium hydroxide, after 60 minutes
[7] = 5% sodium hydroxide, after 15 minutes
[8] = 5% sodium hydroxide, after 60 minutes
[9] = Sodium phosphate buffer, after 15 minutes
[10] = Sodium phosphate buffer, after 60 minutes
[11] = 2.5% ammonium hydroxide, after 10 minutes
[12] = 2.5% ammonium hydroxide, after 240 minutes
[13] = 5% sodium hydroxide, after 10 minutes
[14] = 5% sodium hydroxide, after 240 minutes
[15] = Deionized Water, after 10 minutes
[16] = Deionized Water, after 240 minutes
[17] = Sodium phosphate buffer, after 10 minutes
[18] = Sodium phosphate buffer, after 240 minutes

## CCC(=O)OO [Perpropionic acid, perpropionic acid]
[1]; 2.5% ammonium hydroxide
  PPA degradation/min: 1.10%
[1]; [5]
  H2O2 (%): 0.77%
  PPA (%): 2.03%
[1]; [6]
  H2O2 (%): 0.44%
  PPA (%): 0.97%
[1]; 5% sodium hydroxide
  PPA degradation/min: 1.16%
[1]; [7]
  H2O2 (%): 0.9%
  PPA (%): 2.93%
[1]; [8]
  H2O2 (%): 0.37%
  PPA (%): 1.48%
[1]; [9]
  H2O2 (%): 1.67%
  PPA (%): 5.27%
[1]; [10]
  H2O2 (%): 1.6%
  PPA (%): 4.67%
[1]; ammonium hydroxide (2.5% wt)
  PPA degradation after an hour: 50%
[1]; sodium hydroxide (5% wt.)
  PPA degradation after an hour: 52%
[1]; sodium phosphate buffer
  PPA degradation after an hour: ~11%
  PPA degradation/min: 0.25%
[2]; 2 g PPA + 8 g 2.5% ammonium hydroxide
  pH: 6.11
[2]; 2 g PPA + 8 g 5% sodium hydroxide
  pH: 5.44
[2]; 2 g PPA + 8 g Deionized Water
  pH: 1.77
[2]; 2 g PPA + 8 g Sodium phosphate buffer
  pH: 5.34
[2]; [11]
  H2O2 (%): 1.85%
  PPA (%): 4.18%
[2]; [12]
  H2O2 (%): 2.34%
  PPA (%): 3.31%
[2]; [13]
  H2O2 (%): 1.47%
  PPA (%): 4.4%
[2]; [14]
  H2O2 (%): 1.12%
  PPA (%): 2.55%
[2]; [15]
  H2O2 (%): 1.85%
  PPA (%): 5.54%
[2]; [16]
  H2O2 (%): 1.96%
  PPA (%): 4.75%
[2]; [17]
  H2O2 (%): 1.92%
  PPA (%): 5.82%
[2]; [18]
  H2O2 (%): 1.88%
  PPA (%): 5.19%
[3]; 2.5 kg/ton, post treatment Day 1
  TEC: 2.41 log CFU/g
[3]; 2.5 kg/ton, post treatment Day 22
  TEC: <1.00 log CFU/g
[3]; 2.5 kg/ton, pre-treatment Day 0
  TEC: 2.12 log CFU/g
[3]; 5.0 kg/ton, post treatment Day 1
  TEC: 2.47 log CFU/g
[3]; 5.0 kg/ton, post treatment Day 22
  TEC: 1.73 log CFU/g
[3]; 5.0 kg/ton, pre-treatment Day 0
  TEC: <2.00 log CFU/g
[3]; 10.0 kg/ton, post treatment Day 1
  TEC: 2.19 log CFU/g
[3]; 10.0 kg/ton, post treatment Day 22
  TEC: <1.00 log CFU/g
[3]; 10.0 kg/ton, pre-treatment Day 0
  TEC: <2.00 log CFU/g
[4]; 1 kg/T
  Dye uptake, Average ± SD: 67.32% and 67.32 ± 0.80^d %
[4]; 2.5 kg/T
  Dye uptake, Average ± SD: 83.82% and 83.82 ± 0.78^e %
[4]; 5 kg/T
  Dye uptake, Average ± SD: 88.27% and 88.27 ± 0.42^f %
